# Experimental data: patent publication US6268391A, “Benzylidene-1,3-dihydro-indol-2-one derivatives a receptor tyrosine kinase inhibitors, particularly of Raf kinases” (Glaxo Wellcome Inc., priority 1997, dated 2001)
# Biological target: T1, Human cRaf1 (Homo sapiens, UniProt P04049)
# T1 construct: poly-histidine (C); made in house
# Test: Raf kinase assay (cRaf1 assay / Raf/MEK cascade assay)
# Assay type: biochemical
# Settings: Table 3; read-out: Raf Kinase activity
# Protocol: The potency of cRaf1 dependent kinase activity was measured using one of two assay formats. The first measured cRaf1 catalyzed phosphorylation of MEK1, the natural substrate for cRaf1. This assay is referred to as the cRaf1 assay. The second measured the ability of cRaf1 to phosphorylate and activate MEK1. This assay is referred to as the Raf/MEK cascade assay.
# Human cRaf1 tagged with poly histidine at the carboxyterminus was expressed in a baculovirus expression system and purfied by Ni chelate affinity chromatography. Human MEK1 was expressed in E. coli as a fusion protein with Glutathione-S-transferase, and purified by glutathione sepharose affinity chromatography. […] Reactions contained cRaf1 (20 nM), MEK1 (100-500 nM), [γ-^32 P]ATP ([…]), Mg^2+ (10 mM), MOPS (50 mM, pH 7.5). Reactions were incubated at room temperature for periods of time ranging from 20-120 minutes. Inhibitors were diluted in 100% DMSO prior to addition to the assay. Reactions were terminated with an equal volume of 0.5% phosphoric acid. MEK1 phosphorylation was detected by scintillation counting following collection of protein onto phosphocellulose filters.
# Human cRaf1 and MEK1 were purified as described above. A peptide substrate phosphorylated by MEK1 was used as the final phosphoryl group acceptor. […] Assay conditions were the same as those described above except for the following modifications. Reactions contained cRaf1 (1-5 nM), MEK1 (60 nM), and peptide ([…]).
row,Compound,IC50 [nM]
1,"O=C1Nc2ccc(Cl)cc2C1=Cc1cc(Br)c(O)c(Br)c1 [Example 38, 5-Chloro-3-(3,5-dibromo-4-hydroxy-benzylidene)-1,3-dihydro-indol-2-one]",< 1000
2,"CN(CC(N)=O)CC(=O)c1ccc2c(c1)C(=Cc1cc(Br)c(O)c(Br)c1)C(=O)N2 [Example 69, 2-(N-{3-[3-(3,5 Dibromo-4-hydroxy-benzylidene)-2-oxo-2,3-dihydro-1H-indol-5-yl]-2-oxo-ethyl}-N-methyl-amino)-acetamide]",< 1000
3,"Nc1nc(-c2ccc3c(c2)C(=Cc2cc(Cl)c(O)c(Cl)c2)C(=O)N3)cs1 [Example 134, 5-(2-Amino-thiazol-4-yl)-3-(3,5-dichloro-4-hydroxy-benzylidene)-1,3-dihydro-indol-2-one]",< 1000
4,"O=C1Nc2ccc(OC(F)(F)F)cc2C1=Cc1cc(I)c(O)c(I)c1 [Example 45, 3-(3,5-diiodo-4-Hydroxy-benzylidene)-5-trifluoromethoxy-1,3-dihydro-indol-2-one]",< 1000
5,O=C1Nc2ccc(C(=O)c3ccco3)cc2C1=Cc1cc(Cl)c(O)c(Cl)c1 [Example 22],< 1000
6,"CCOc1cc(C=C2C(=O)Nc3ccc(Br)cc32)cc(Br)c1O [Example 56, 5-Bromo-3-(3-bromo-5-ethoxy-4-hydroxy-benzylidene)-1,3-dihydro-indol-2-one]",< 1000
7,"CC(C)(C)C(=O)OCOc1c(Br)cc(C=C2C(=O)Nc3ccc(Cl)cc32)cc1Br [Example 150, 2,6-Dibromo-4-[(5-chloro-2-oxo-1,2-dihydro-3H-indol-3-ylidene)methyl]phenoxymethyl pivalate]",10000 to 100000
8,"O=C1Nc2ccccc2C1=Cc1cc(I)c(O)c(I)c1 [Example 50, 3-(3,5-diiodo-4-Hydroxy-benzylidene)-1,3-dihydro-indol-2-one]",1000 to 10000
9,"CCN(CCO)CC(=O)c1ccc2c(c1)C(=Cc1cc(Br)c(O)c(Br)c1)C(=O)N2 [Example 108, 3-(3,5-Dibromo-4-hydroxy-benzylidene)-5-{2-[N-ethyl-N-(2-hydroxy-ethyl)-amino]-acetyl}-1,3-dihydro-indol-2-one]",< 1000
10,"O=C1Nc2ccc(C(=O)C[n+]3ccccc3)cc2C1=Cc1cc(Br)c(O)c(Br)c1 [Example 77, 3-(3,5-Dibromo-4-hydroxy-benzylidene)-5-(2-(N-pyridinium)-acetyl)-1,3-dihydro-indol-2-one chloride]",< 1000
11,"O=C1Nc2ccc(-c3csc(-c4ccccc4)n3)cc2C1=Cc1cc(Br)c(O)c(Br)c1 [Example 125, 3-(3,5-Dibromo-4-hydroxy-benzylidene)-5-(2-phenyl-thiazol-4-yl)-1,3-dihydro-indol-2-one]",< 1000
12,"O=C1Nc2ccc(OC(F)(F)F)cc2C1=Cc1cc(Cl)c(O)c(Cl)c1 [Example 60, 3-(3,5-Dichloro-4-hydroxy-benzylidene)-5-trifluoromethoxy-1,3-dihydro-indol-2-one]",< 1000
13,"COc1cccc(C(=O)c2ccc3c(c2)C(=Cc2cc(Br)c(O)c(Br)c2)C(=O)N3)c1 [Example 91, 3-(3,5-Dibromo-4-hydroxy-benzylidene)-5-(3-methoxy-benzoyl)-1,3-dihydro-indol-2-one]",< 1000
14,"O=C1Nc2ccc(-c3ccc(Cl)cc3Cl)cc2C1=Cc1cc(Br)c(O)c(Br)c1 [Example 171, 3-[(3,5-Dibromo-4-hydroxyphenyl)methylidene]-5-(2,4-dichlorophenyl)-1,3-dihydro-2H-indol-2-one]",< 1000
15,"O=C1Nc2ccc(C(=O)c3ccccc3)cc2C1=Cc1cc(Cl)c(O)c(Cl)c1 [Example 7, 5-Benzoyl-3-(3,5-dichloro-4-hydroxy-benzylidene)-1,3-dihydro-indol-2-one]",< 1000
16,"O=C1Nc2ccccc2C1=Cc1cc(Cl)c(O)c(Cl)c1 [Example 48, 3-(3,5-dichloro-4-Hydroxy-benzylidene)-1,3-dihydro-indol-2-one]",1000 to 10000

row,Compound,IC50 [nM]
1,"Nc1nc(-c2ccc3c(c2)C(=Cc2cc(Br)c(O)c(Br)c2)C(=O)N3)cs1 [Example 30, 5-(2-Amino-thiazol-4-yl)-3-(3,5-dibromo-4-hydroxy-benzylidene)-1,3-dihydro-indol-2-one]",< 1000
2,"O=C1Nc2ccc(C(=O)CCl)cc2C1=Cc1cc(I)c(O)c(I)c1 [Example 114, 5-(2-Chloro-acetyl)-3-(3,5-diiodo-4-hydroxy-benzylidene)-1,3-dihydro-indol-2-one]",< 1000
3,"O=C1Nc2cc(-c3ccccc3)ccc2C1=Cc1cc(Br)c(O)c(Br)c1 [Example 112, 3-(3,5-Dibromo-4-hydroxy-benzylidene)-6-phenyl-1,3-dihydro-indol-2-one]",1000 to 10000
4,"O=C(NCCOCCO)Oc1c(Br)cc(C=C2C(=O)Nc3ccc(I)cc32)cc1Br [Example 152, 2,6-Dibromo-4-[(5-iodo-2-oxo-1,2-dihydro-3H-indol-3-ylidene)methyl]phenyl N-[2-(2-hydroxyethoxy)ethyl]carbamate]",< 1000
5,CNc1nc(-c2ccc3c(c2)C(=Cc2cc(Br)c(O)c(Br)c2)C(=O)N3)cs1 [Example 140],< 1000
6,"O=C1Nc2ccc(C(=O)CCl)cc2C1=Cc1cc(Cl)c(O)c(Cl)c1 [Example 88, 5-(2-Chloro-acetyl)-3-(3,5-dichloro-4-hydroxy-benzylidene)-1,3-dihydro-indol-2-one]",< 1000
7,"COc1cc(C=C2C(=O)Nc3ccc(Cl)cc32)cc(Br)c1O [Example 51, 3-(3-Bromo-4-hydroxy-5-methoxy-benzylidene)-5-chloro-1,3-dihydro-indol-2-one]",< 1000
8,"CC(=O)c1ccc2c(c1)C(=Cc1cc(Br)c(O)c(Br)c1)C(=O)N2 [Example 89, 5-Acetyl-3-(3,5-dibromo-4-hydroxy-benzylidene)-1,3-dihydro-indol-2-one]",< 1000
9,"O=C1Nc2ccc(S(=O)(=O)N(CCO)CCO)cc2C1=Cc1cc(Br)c(O)c(Br)c1 [Example 157, 3-[(3,5-Dibromo-4-hydroxyphenyl)methylidene]-N,N-bis(2-hydroxyethyl)-2-oxo-5-indolinesulfonamide]",< 1000
10,"CCOc1cc(C=C2C(=O)Nc3ccc(C(=O)c4cccnc4)cc32)cc(Br)c1O [Example 16, 3-(3-Bromo-5-ethoxy-4-hydroxy-benzylidene)-5-(pyridine-3-carbonyl)-1,3-dihydro-indol-2-one]",< 1000
11,"O=C1Nc2c(cc([N+](=O)[O-])cc2[N+](=O)[O-])C1=Cc1cc(Br)c(O)c(Br)c1 [Example 62, 3-(3,5-Dibromo-4-hydroxy-benzylidene)-5,7-dinitro-1,3-dihydro-indol-2-one]",< 1000
12,"3-(3,5-Dibromo-4-hydroxy-benzylidene)-5-(3-methylimidazol-1-yl-acetyl)-1,3-dihydro-indol-2-one [Example 71]",< 1000
13,"N#Cc1ccc2c(c1)NC(=O)C2=Cc1cc(Br)c(O)c(Br)c1 [Example 179, 3-[(3,5-Dibromo-4-hydroxyphenyl)methylidene]-2-oxo-6-indolinecarbonitrile]",< 1000
14,"O=C1Nc2ccc(C(=O)c3ccncc3)cc2C1=Cc1cc(Br)c(O)c(Br)c1 [Example 13, 3-(3,5-Dibromo-4-hydroxy-benzylidene)-5-(pyridine-4-carbonyl)-1,3-dihydro-indol-2-one]",< 1000
15,"O=C1Nc2ccccc2C1=Cc1cc([N+](=O)[O-])c(O)c([N+](=O)[O-])c1 [Example 47, 3-(3,5-dinitro-4-Hydroxy-benzylidene)-1,3-dihydro-indol-2-one]",1000 to 10000
